Assay results taken from the NIST ThermoML archive (doi:10.1016/j.tca.2018.08.017).
Where “and” joins values, the source holds several entries; their conditions need not be identical. Equal values may be shown once.

Conditions: 101.33 kPa, Liquid

CCCCCCCCCCCCCCCCCC [octadecane]
viscosity
Conditions | Concentric cylinders viscometry | Cone and plate viscometry
299.75 K | – | 3.95 mPa·s
299.95 K | – | 3.92 mPa·s
300.05 K | – | 4.21 mPa·s
300.15 K | – | 3.91 mPa·s and 4.12 mPa·s
300.35 K | – | 3.89 mPa·s and 4.09 mPa·s
300.55 K | – | 3.86 mPa·s
300.65 K | – | 4.06 mPa·s and 4.17 mPa·s
300.75 K | – | 3.84 mPa·s
300.85 K | – | 3.84 mPa·s and 4.04 mPa·s
300.95 K | – | 3.82 mPa·s
300.96 K | 4.095 mPa·s | –
301.15 K | – | 3.81 mPa·s and 4.02 mPa·s and 4.13 mPa·s
301.29 K | 4.068 mPa·s [middle of 4 runs] | –
301.35 K | – | 3.8 mPa·s and 4 mPa·s
301.36 K | 4.052 mPa·s | –
301.55 K | – | 3.8 mPa·s
301.65 K | – | 3.98 mPa·s and 4.09 mPa·s
301.75 K | – | 3.76 mPa·s and 3.74 mPa·s
301.76 K | 4.011 mPa·s | –
301.84 K | 4.009 mPa·s | –
301.85 K | – | 3.96 mPa·s
301.95 K | – | 3.77 mPa·s
302.05 K | – | 3.71 mPa·s
302.15 K | – | 3.76 mPa·s and 3.93 mPa·s and 4.04 mPa·s
302.18 K | 3.967 mPa·s | –
302.35 K | – | 3.72 mPa·s and 3.91 mPa·s
302.45 K | – | 3.69 mPa·s
302.55 K | – | 3.73 mPa·s
302.58 K | 3.927 mPa·s | –
302.64 K | 3.926 mPa·s | –
302.65 K | – | 3.88 mPa·s and 4.01 mPa·s
302.75 K | – | 3.71 mPa·s
302.85 K | – | 3.85 mPa·s and 3.66 mPa·s
302.95 K | – | 3.69 mPa·s
302.96 K | 3.884 mPa·s | –
303.15 K | – | 3.72 mPa·s [middle of 6 runs]
303.35 K | – | 3.67 mPa·s and 3.81 mPa·s
303.38 K | 3.837 mPa·s [middle of 5 runs] | –
303.4 K | 3.838 mPa·s | –
303.42 K | 3.846 mPa·s | –
303.55 K | – | 3.63 mPa·s and 3.61 mPa·s
303.65 K | – | 3.78 mPa·s and 3.93 mPa·s
303.75 K | – | 3.64 mPa·s
303.81 K | 3.799 mPa·s | –
303.85 K | – | 3.77 mPa·s and 3.59 mPa·s
303.95 K | – | 3.65 mPa·s
304.15 K | – | 3.6 mPa·s and 3.75 mPa·s and 3.89 mPa·s
304.19 K | 3.769 mPa·s | –
304.21 K | 3.762 mPa·s | –
304.25 K | – | 3.56 mPa·s
304.35 K | – | 3.58 mPa·s and 3.73 mPa·s
304.55 K | – | 3.57 mPa·s and 3.53 mPa·s
304.58 K | 3.727 mPa·s | –
304.65 K | – | 3.7 mPa·s and 3.85 mPa·s
304.75 K | – | 3.56 mPa·s
304.85 K | – | 3.69 mPa·s
304.92 K | 3.694 mPa·s | –
304.95 K | – | 3.53 mPa·s and 3.51 mPa·s
305.08 K | 3.678 mPa·s | –
305.15 K | – | 3.55 mPa·s and 3.67 mPa·s and 3.81 mPa·s
305.25 K | – | 3.48 mPa·s
305.35 K | – | 3.5 mPa·s and 3.64 mPa·s
305.46 K | 3.642 mPa·s | –
305.55 K | – | 3.5 mPa·s
305.65 K | – | 3.62 mPa·s and 3.47 mPa·s and 3.77 mPa·s
305.7 K | 3.624 mPa·s | –
305.75 K | – | 3.48 mPa·s
305.84 K | 3.606 mPa·s | –
305.85 K | – | 3.6 mPa·s
305.95 K | – | 3.46 mPa·s
306.05 K | – | 3.43 mPa·s
306.15 K | – | 3.47 mPa·s and 3.58 mPa·s and 3.72 mPa·s
306.23 K | 3.571 mPa·s | –
306.35 K | – | 3.47 mPa·s and 3.56 mPa·s and 3.42 mPa·s
306.42 K | 3.556 mPa·s | –
306.55 K | – | 3.44 mPa·s
306.61 K | 3.538 mPa·s | –
306.65 K | – | 3.54 mPa·s and 3.69 mPa·s
306.75 K | – | 3.42 mPa·s and 3.39 mPa·s
306.85 K | – | 3.52 mPa·s
306.95 K | – | 3.43 mPa·s
306.98 K | 3.502 mPa·s | –
307.05 K | – | 3.36 mPa·s
307.15 K | – | 3.42 mPa·s and 3.5 mPa·s and 3.66 mPa·s
307.3 K | 3.478 mPa·s | –
307.35 K | – | 3.4 mPa·s and 3.49 mPa·s
307.37 K | 3.469 mPa·s | –
307.45 K | – | 3.35 mPa·s
307.55 K | – | 3.39 mPa·s
307.65 K | – | 3.47 mPa·s and 3.62 mPa·s
307.72 K | 3.438 mPa·s | –
307.75 K | – | 3.38 mPa·s and 3.32 mPa·s
307.84 K | 3.426 mPa·s and 3.427 mPa·s | –
307.85 K | 3.426 mPa·s | 3.45 mPa·s
307.87 K | 3.426 mPa·s | –
307.93 K | 3.424 mPa·s | –
307.95 K | – | 3.35 mPa·s
308.07 K | 3.413 mPa·s | –
308.11 K | 3.404 mPa·s | –
308.15 K | – | 3.35 mPa·s [middle of 6 runs]
308.35 K | – | 3.31 mPa·s and 3.42 mPa·s
308.55 K | – | 3.29 mPa·s and 3.28 mPa·s
308.59 K | 3.363 mPa·s | –
308.65 K | – | 3.39 mPa·s and 3.53 mPa·s
308.75 K | – | 3.29 mPa·s
308.83 K | 3.349 mPa·s | –
308.85 K | – | 3.37 mPa·s and 3.26 mPa·s
308.95 K | – | 3.29 mPa·s
308.96 K | 3.333 mPa·s | –
309.15 K | – | 3.27 mPa·s and 3.36 mPa·s and 3.49 mPa·s
309.25 K | – | 3.25 mPa·s
309.3 K | 3.306 mPa·s | –
309.35 K | – | 3.26 mPa·s and 3.34 mPa·s
309.55 K | – | 3.28 mPa·s and 3.22 mPa·s
309.58 K | 3.286 mPa·s | –
309.65 K | – | 3.32 mPa·s and 3.45 mPa·s
